Test results reported in patent US20170050957A1, “4-AMINO-6-(HETEROCYCLIC)PICOLINATES AND 6-AMINO-2-(HETEROCYCLIC)PYRIMIDINE-4-CARBOXYLATES AND THEIR USE AS HERBICIDES” (Dow AgroSciences LLC, priority 2013, published 2017).
Like-named read-outs stand apart in the source and are kept apart here.

What was measured:
[1] = tested on: Key Broadleaf Weed and Crop Species; assay: Post-emergent Test II herbicidal activity (Table 15); assay type: in vivo; conditions: post-emergence, 336 h, 14 d; for pest or weed control at 35 g/ha: 35 g ai/ha; for pest or weed control at 70 g/ha: 70 g ai/ha; for pest or weed control at 140 g/ha: 140 g ai/ha; for pest or weed control at 280 g/ha: 280 g ai/ha
Procedure, shortened: (§1)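 Post-emergence spray; seedlings 7-21 d old, 1st-2nd true leaf; 187 L/ha; serial rates 1×-1/16×; solvent blank controls; subirrigated; visual % injury at 14 d.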

[2] = tested on: Key Grass and Sedge Weeds as well as Grass Crops; assay: Post-emergent Test II herbicidal activity (Table 16); assay type: in vivo; conditions: post-emergence, 336 h, 14 days after application; for pest or weed control at 35 g/ha: 35 g ai/ha; for pest or weed control at 70 g/ha: 70 g ai/ha; for pest or weed control at 140 g/ha: 140 g ai/ha; for pest or weed control at 280 g/ha: 280 g ai/ha
Procedure, shortened: as §1

[3] = Abutilon theophrasti, velvetleaf (Abutilon theophrasti), read-out: Visual Growth Reduction (%) 14 Days After Application, ABUTH
[4] = Amaranthus retroflexus, redroot pigweed (Amaranthus retroflexus), read-out: Visual Growth Reduction (%) 14 Days After Application, AMARE
[5] = Brassica napus, oilseed rape, canola (Brassica napus), read-out: Visual Growth Reduction (%) 14 Days After Application, BRSNN
[6] = Chenopodium album, lambsquarters (Chenopodium album), read-out: Visual Growth Reduction (%) 14 Days After Application, CHEAL
[7] = Euphorbia heterophylla, wild poinsettia (Euphorbia heterophylla), read-out: Visual Growth Reduction (%) 14 Days After Application, EPHHL
[8] = Helianthus annuus, sunflower (Helianthus annuus), read-out: Visual Growth Reduction (%) 14 Days After Application, HELAN
[9] = Cyperus esculentus, yellow nutsedge (Cyperus esculentus), read-out: Visual Growth Reduction (%) 14 Days After Application CYPES
[10] = Echinochloa crus-galli, barnyardgrass (Echinochloa crus-galli), read-out: Visual Growth Reduction (%) 14 Days After Application ECHCG
[11] = Oryza sativa, rice (Oryza sativa), read-out: Visual Growth Reduction (%) 14 Days After Application ORYSA
[12] = Setaria faberi, giant foxtail (Setaria faberi), read-out: Visual Growth Reduction (%) 14 Days After Application SETFA
[13] = Triticum aestivum, wheat, spring (Triticum aestivum), read-out: Visual Growth Reduction (%) 14 Days After Application TRZAS
[14] = Zea mays, maize, corn (Zea mays), read-out: Visual Growth Reduction (%) 14 Days After Application ZEAMX

COC(=O)c1nc(-c2cccc3ccsc23)cc(N)c1Cl [Compound 3.27]
60 to 74%: pest or weed control at 70 g/ha [1, 5] | pest or weed control at 140 g/ha [1, 5] | pest or weed control at 70 g/ha [1, 8]
0 to 29%: pest or weed control at 35 g/ha [1, 3] | pest or weed control at 70 g/ha [1, 3] | pest or weed control at 35 g/ha [1, 7] | pest or weed control at 70 g/ha [1, 7] | pest or weed control at 140 g/ha [1, 7] | pest or weed control at 280 g/ha [1, 7] | pest or weed control at 35 g/ha [2, 9] | pest or weed control at 70 g/ha [2, 9] | pest or weed control at 140 g/ha [2, 9] | pest or weed control at 280 g/ha [2, 9] | pest or weed control at 35 g/ha [2, 10] | pest or weed control at 70 g/ha [2, 10] | pest or weed control at 140 g/ha [2, 10] | pest or weed control at 280 g/ha [2, 10] | pest or weed control at 35 g/ha [2, 11] | pest or weed control at 70 g/ha [2, 11] | pest or weed control at 140 g/ha [2, 11] | pest or weed control at 280 g/ha [2, 11] | pest or weed control at 35 g/ha [2, 12] | pest or weed control at 70 g/ha [2, 12] | pest or weed control at 140 g/ha [2, 12] | pest or weed control at 280 g/ha [2, 12] | pest or weed control at 35 g/ha [2, 13] | pest or weed control at 70 g/ha [2, 13] | pest or weed control at 140 g/ha [2, 13] | pest or weed control at 280 g/ha [2, 13] | pest or weed control at 35 g/ha [2, 14] | pest or weed control at 70 g/ha [2, 14] | pest or weed control at 140 g/ha [2, 14] | pest or weed control at 280 g/ha [2, 14]
75 to 84%: pest or weed control at 280 g/ha [1, 3] | pest or weed control at 35 g/ha [1, 6] | pest or weed control at 140 g/ha [1, 8]
85 to 94%: pest or weed control at 35 g/ha [1, 4] | pest or weed control at 280 g/ha [1, 5] | pest or weed control at 70 g/ha [1, 6] | pest or weed control at 280 g/ha [1, 8]
45 to 59%: pest or weed control at 140 g/ha [1, 3] | pest or weed control at 35 g/ha [1, 5] | pest or weed control at 35 g/ha [1, 8]
95 to 100%: pest or weed control at 70 g/ha [1, 4] | pest or weed control at 140 g/ha [1, 4] | pest or weed control at 280 g/ha [1, 4] | pest or weed control at 140 g/ha [1, 6] | pest or weed control at 280 g/ha [1, 6]
